In test [1] the target is T1, USP14 (ubiquitin-specific protease 14) (Homo sapiens, UniProt P54578).
T1 construct: USP14 (6His-tagged), 64-0018-050, Ubiquigent; with Ub-VS-treated human 26S proteasome
Put plainly: Ub-Rho110-G hydrolysis assay, recombinant USP14 with Ub-VS-treated […] proteasome, dose-response. Type of test: biochemical.

In test [2] the target is T1, USP14 (ubiquitin-specific protease 14). Put plainly: Ub-Rho110-G hydrolysis assay, positive control at […] ([…] inhibition) and […] ([…]); also HA-Ub-VS labeling in IGROV-1/Pt1 cells. Type of test: biochemical.

The structures appear in SMILES notation.

T1 sequence (P54578 whole entry): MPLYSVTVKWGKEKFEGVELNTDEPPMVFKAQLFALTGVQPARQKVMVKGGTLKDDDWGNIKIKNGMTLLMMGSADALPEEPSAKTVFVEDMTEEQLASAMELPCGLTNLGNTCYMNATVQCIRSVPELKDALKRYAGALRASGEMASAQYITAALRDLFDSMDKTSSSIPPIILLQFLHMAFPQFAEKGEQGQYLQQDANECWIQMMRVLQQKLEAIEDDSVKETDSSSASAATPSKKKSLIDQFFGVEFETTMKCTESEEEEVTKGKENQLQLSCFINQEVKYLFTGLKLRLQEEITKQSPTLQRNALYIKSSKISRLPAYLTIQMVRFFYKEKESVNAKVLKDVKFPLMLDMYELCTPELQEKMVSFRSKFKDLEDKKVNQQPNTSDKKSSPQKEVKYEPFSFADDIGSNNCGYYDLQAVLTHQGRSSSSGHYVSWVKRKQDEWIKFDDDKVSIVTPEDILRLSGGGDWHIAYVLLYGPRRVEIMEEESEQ

As to `CC1=NN(c2cccc(NC(=O)c3ccccc3Cn3ccnc3)c2)C(=O)C1` [ARN12502], the IC50 – broadly, the midpoint of a concentration-inhibition curve – in test [1] was found to be 18.4 ± 2.2 µM.
Turning to `Cc1cc(C(=O)CN2CCCCC2)c(C)n1-c1ccc(Cl)cc1` [IU1-47], in test [2], the IC50 is ~ 200 nM.

The values are drawn from publication PMC12539213, “Molecular targeting of the deubiquitinase USP14 to circumvent cisplatin resistance in ovarian carcinoma and identification of novel inhibitors” (Cancer Drug Resistance, 2025).
